# Earlier results as cited in patent publication US9068996B2, “Analyte detection method” (SPHERE MEDICAL LIMITED, priority 2010, dated 2015).
# Like-named read-outs stand apart in the source and are kept apart here.
# Settings: for average blood propofol concentration required: patients
structure (smiles),measurement,setting,value
"CC(C)c1cccc(C(C)C)c1O [propofol, 2,6-di-isopropylphenol]",Blood propofol concentration at which 50% of patients (EC50) were awake,"after surgery, awake",1.07 µg/mL
same,Blood propofol concentration at which 50% of patients (EC50) were oriented,"after surgery, oriented",0.95 µg/mL
same,average blood propofol concentration required,major surgery,4.05 ± 1.01 µg/mL
same,average blood propofol concentration required,non-major surgery,2.97 ± 1.07 µg/mL
